pEC50: −log10 of the molar value.
Tests used:
[1] = tested on: M17_3SYN cells; assay: Paraquat-induced cytotoxicity (LDH) in α-synuclein over-expressing M17_3SYN neuroblastoma cells; assay type: cell-based; conditions: Homo sapiens, Neuroblastoma cell, 48 h, 6 mM Paraquat, 2 days, LDH toxicity inhibition, read-out: SYN EC50
From the text: A α-synuclein expression plasmid was constructed by subcloning the NcoI/XhoI fragment from 212T-SYN(WT) (Griffioen et al., Biochem Biophys Acta (2006) 1762(3):312-318) containing the cDNA of human wild type α-synuclein correspondingly into a standard mammalian expression vector pcDNA3.1 resulting in plasmid pcDNA3.1-SYNwt. Plasmids pcDNA3.1 and pcDNA3.1-SYNwt were transfected into human neuroblastoma cells (BE-M17; ATCC No. CRL-2267™) using lipofectamine reagent and subsequently, independent clonal cell lines with the plasmids stably integrated into the genome were selected by antibiotic resistance selection (Geneticin (G418)), resulting in cell lines M17.pcDNA3 and M17_3SYN. Overexpression of α-synuclein in the M17_3SYN cell line was confirmed by Western blot analysis.
Due to the high levels of α-synuclein, M17_3SYN cells were sensitive to paraquat, a well-known risk factor Parkinson's disease and of synuclein-dependent neuronal degeneration. Cytotoxicity of cells was measured by quantification of lactate dehydrogenase (LDH) levels. In dead cells, LDH leaked out of the cells into the medium due to a loss of plasma-membrane integrity.
Three days preceding the experiment, primary pre-cultures of M17.pcDNA3 (as possible control) and M17_3SYN cells were prepared, starting from a stock culture, at a density of 20.000-40.000 cells/cm2 in culture medium (Opti-MEM® Reduced Serum Medium with Phenol Red (Invitrogen, Cat. 31985-047) supplemented with 10% FCS, 1 mM sodium pyruvate, 1×NEAA, 500 μg/ml G418 and 0.5× antibiotic/antimycotic (ABAM)). 3 days later these primary pre-cultures were used as a starting point to make secondary pre-cultures at a density of 50.000-100.000 cells/cm^2. At the day of the experiment these secondary precultures were diluted to ˜0.5·10^6 cells/ml in detection medium (Opti-MEM® Reduced-Serum Medium without Phenol Red (Invitrogen, Cat. 11085-021) supplemented with 10% FCS, 1 mM sodium pyruvate, 1×NEAA, 500 μg/ml G418 and 0.5×ABAM) and 60 μL of this suspension was dispensed per well into a 96-well microtiter plate. After 3 hours of incubation at 37° C./5% CO2 an equal volume of detection medium containing a final concentration of 6 mM Paraquat was added and subsequently incubated for 2 days at 37° C./5% CO2. Then LDH activity was determined using the Promega Cytotox 96 Non-Radioactive cytotoxicity assay (Promega, Cat. G1780), according to the manufacturer's instructions. Cytotoxicity was defined as the ratio of LDH relative to the total LDH in the cells and supernatant.
The assay described above using the M17_3SYN cell line allowed screening compounds for their ability to decrease cytotoxicity in PQ-challenged cells. Compounds of the invention were tested for their ability to decrease toxicity at different concentrations, ranging from low non-effective concentrations to high effective concentrations. Afterwards, a dose-dependent inhibition curve was used to calculate the EC50. A compound was considered to be active in this test when it inhibited toxicity by more than 20% relative to untreated M17_3SYN cells at a concentration of […] or lower.

[2] = tested on: INS-1E cells; assay: Cytokine-induced apoptosis (caspase-3/7 activation, Caspase-Glo 3/7) in INS-1E rat insulinoma cells; assay type: cell-based; conditions: cytokine mix (IFN-γ, IL-1, TNF-α), 24 hours, caspase 3/7 activity, read-out: CYT EC50
From the text: The INS-1E cell line, a rat insulinoma cell line, has been characterized extensively. INS-1E cells respond to glucose by secreting insulin and, unlike most other immortalized n-cell lines, they do this in a consistent manner over time. The cells are sensitive to hyperglycemia-, free fatty acid (FFA)-, and cytokine-induced stress. Prolonged stress ultimately leads to induction of apoptotic pathways and, if stress is not counter-acted, to apoptosis. Caspase-3 and -7 play a central role downstream where various apoptotic pathways merge. As such, activation (i.e. cleavage) of these caspases forms a relevant primary read-out to evaluate protective activity of compounds against stress-induced apoptosis.
To evaluate the efficacy of different compounds to prevent induction of apoptosis, an in vitro screen was developed in which INS-1E cells were exposed to a cytokine mix (IFN-γ, 5 ng/ml; IL-1, 20 pg/ml; TNF-α, 0.25 ng/ml). The degree of induction of apoptosis was evaluated using a substrate for cleaved caspase-3 and -7, i.e. a proluminescent caspase-3/7 DEVD aminoluciferin substrate with a thermostable luciferase (Caspase-Glo® 3/7 assay; Promega, cat. G8092).
On day 0, INS-1E cells were plated in a white-walled 96-well microplate (Greiner, cat. 655098) at 20,000 cells per well in 100 μl complete medium (RPMI containing 11 mM glucose supplemented with 5% FCS, 100 IU/ml penicillin, 100 μg/ml streptomycin, 10 mM HEPES, 1 mM Sodium Pyruvate and 50 μM 2-Mercapto-ethanol). On day 2, 100 μl medium containing cytokines and compound dissolved in DMSO was added to the cells. Wells without cytokines containing DMSO and wells with cytokines and DMSO were included to evaluate the degree of caspase 3/7 activation by the cytokine mix. After 24 hours exposure to cytokines and/or compound, Caspase-Glo® 3/7 reagent was added to the cells and caspase activity was determined by measuring luminescence.
To evaluate compound efficacy, the “toxicity window” was calculated by subtracting caspase activity of wells without stressor from activity of wells with stressor but without compound. The amount of caspase activity in the latter wells was normalized to 1 and used as reference. Subsequently, caspase activity in the wells with stressor and varying concentrations of compound was calculated relative to the wells without compound. Plotting caspase activity vs the log 10 of the concentration of compound permitted calculation of the EC50 values for the compounds which typically lied between 0.0001 and 10 μM. Compounds with an EC50<10 μM were considered active.

Row | pEC50 [2] | Compound | pEC50 [1]
1 | 7.47 | COc1ccc(S(=O)(=O)N2CCC3(CC2)CN(C(=O)C2(c4ccccc4)CC2)C3)cc1 [Cmpd014, (7-((4-Methoxyphenyl)sulfonyl)-2,7-diazaspiro[3.5]nonan-2-yl)(1-phenylcyclopropyl)methanone] | 7.25
2 | 7.51 | COc1ccc(S(=O)(=O)N2CCC3(CC2)CN(C(=O)CCc2ccc(F)cc2)C3)cc1 [Cmpd015, 3-(4-Fluorophenyl)-1-(7-((4-methoxyphenyl)sulfonyl)-2,7-diazaspiro[3.5]nonan-2-yl)propan-1-one] | 6.27
3 | 7.24 | COc1ccc(S(=O)(=O)N2CCC3(CC2)CN(C(=O)C(C)(O)c2ccccn2)C3)cc1 (stereo not drawn) [Cmpd018, 2-Hydroxy-1-(7-((4-methoxyphenyl)sulfonyl)-2,7-diazaspiro[3.5]nonan-2-yl)-2-(pyridin-2-yl)propan-1-one] | 6.62
4 | 7.27 | COc1ccc(C(C)C(=O)N2CC3(CCN(S(=O)(=O)c4ccc(OC)cc4)CC3)C2)cc1 (stereo not drawn) [Cmpd019, 2-(4-Methoxyphenyl)-1-(7-((4-methoxyphenyl)sulfonyl)-2,7-diazaspiro[3.5]nonan-2-yl)propan-1-one] | 7.02
5 | 7.37 | COc1ccc(S(=O)(=O)N2CCC3(CC2)CN(C(=O)C(C)(C)c2ccccc2C)C3)cc1 [Cmpd020, 1-(7-((4-Methoxyphenyl)sulfonyl)-2,7-diazaspiro[3.5]nonan-2-yl)-2-methyl-2-(o-tolyl)propan-1-one] | 7.84
6 | 6.97 | COc1ccc(S(=O)(=O)N2CCC3(CC2)CN(C(=O)[C@H](c2ccc(F)cc2)C(C)C)C3)cc1 [Cmpd022, (S)-2-(4-fluorophenyl)-1-(7-((4-methoxyphenyl)sulfonyl)-2,7-diazaspiro[3.5]nonan-2-yl)-3-methylbutan-1-one] | 7.54
7 | 7.72 | COc1ccc(S(=O)(=O)N2CCC3(CC2)CN(C(=O)C(C)c2ccccc2OC)C3)cc1 (stereo not drawn) [Cmpd023, 2-(2-Methoxyphenyl)-1-(7-((4-methoxyphenyl)sulfonyl)-2,7-diazaspiro[3.5]nonan-2-yl)propan-1-one] | 7.41
8 | 7.20 | COc1ccc(S(=O)(=O)N2CCC3(CC2)CN(C(=O)C(C)(C)c2ccccc2OC)C3)cc1 [Cmpd024, 2-(2-Methoxyphenyl)-1-(7-((4-methoxyphenyl)sulfonyl)-2,7-diazaspiro[3.5]nonan-2-yl)-2-methylpropan-1-one] | 7.09
9 | 6.21 | COc1ccc(S(=O)(=O)N2CCC3(CC2)CN(C(=O)C2CCCc4ccccc42)C3)cc1 (stereo not drawn) [Cmpd025, (7-((4-Methoxyphenyl)sulfonyl)-2,7-diazaspiro[3.5]nonan-2-yl)(1,2,3,4-tetrahydronaphthalen-1-yl)methanone] | 7.19
10 | 7.06 | COc1ccc(S(=O)(=O)N2CCC3(CC2)CN(C(=O)C(C)c2ccc(Cl)cc2)C3)cc1 (stereo not drawn) [Cmpd026, 2-(4-Chlorophenyl)-1-(7-((4-methoxyphenyl)sulfonyl)-2,7-diazaspiro[3.5]nonan-2-yl)propan-1-one] | 6.88
11 | 6.74 | COc1ccc(S(=O)(=O)N2CCC3(CC2)CN(C(=O)C(C)(C)c2ccc(Cl)cc2)C3)cc1 [Cmpd027, 2-(4-Chlorophenyl)-1-(7-((4-methoxyphenyl)sulfonyl)-2,7-diazaspiro[3.5]nonan-2-yl)-2-methylpropan-1-one] | 7.83
12 | 7.54 | COc1ccc(S(=O)(=O)N2CCC3(CC2)CN(C(=O)C2(c4ccccc4)CCCC2)C3)cc1 [Cmpd028, (7-((4-Methoxyphenyl)sulfonyl)-2,7-diazaspiro[3.5]nonan-2-yl)(1-phenylcyclopentyl)methanone] | 7.66
13 | 7.24 | COc1ccc(S(=O)(=O)N2CCC3(CC2)CN(C(=O)C(C)c2cc(F)cc(F)c2)C3)cc1 (stereo not drawn) [Cmpd029, 2-(3,5-Difluorophenyl)-1-(7-((4-methoxyphenyl)sulfonyl)-2,7-diazaspiro[3.5]nonan-2-yl)propan-1-one] | 6.72
14 | 6.87 | COc1ccc(S(=O)(=O)N2CCC3(CC2)CN(C(=O)C(C)(C)c2cccc(Cl)c2)C3)cc1 [Cmpd030, 2-(3-Chlorophenyl)-1-(7-((4-methoxyphenyl)sulfonyl)-2,7-diazaspiro[3.5]nonan-2-yl)-2-methylpropan-1-one] | 8.30
15 | 6.83 | COc1ccc(S(=O)(=O)N2CCC3(CC2)CN(c2nc(CC(F)(F)F)ns2)C3)cc1 [Cmpd031, 5-(7-((4-Methoxyphenyl)sulfonyl)-2,7-diazaspiro[3.5]nonan-2-yl)-3-(2,2,2-trifluoroethyl)-1,2,4-thiadiazole] | 6.92
16 | 7.66 | CC(=O)Nc1ccc(S(=O)(=O)N2CCC3(CC2)CN(c2nc(Cc4ccc(F)cc4)ns2)C3)cc1 [Cmpd058, N-(4-((2-(3-(4-fluorobenzyl)-1,2,4-thiadiazol-5-yl)-2,7-diazaspiro[3.5]nonan-7-yl)sulfonyl)phenyl)acetamide] | 6.54
17 | 7.47 | CS(=O)(=O)c1cccc(S(=O)(=O)N2CCC3(CC2)CN(c2nc(Cc4ccc(F)cc4)ns2)C3)c1 [Cmpd082, 3-(4-Fluorobenzyl)-5-(7-((3-(methylsulfonyl)phenyl)sulfonyl)-2,7-diazaspiro[3.5]nonan-2-yl)-1,2,4-thiadiazole] | 6.32
18 | 7.74 | O=S(=O)(c1cccs1)N1CCC2(CC1)CN(c1nc(Cc3ccc(F)cc3)ns1)C2 [Cmpd092, 3-(4-Fluorobenzyl)-5-(7-(thiophen-2-ylsulfonyl)-2,7-diazaspiro[3.5]nonan-2-yl)-1,2,4-thiadiazole] | 6.21
